Laboratory results: patent publication US7649004B2, “Pyridine derivatives” (Pfizer, Inc., priority 2004, dated 2010)

Molecular target: T1, Human Nav1.8 (Homo sapiens, UniProt Q9Y5Y9)
T1 construct: expressed in transfected cells; host or cells: HEK293
Assay: VIPR assay for Nav1.8 compounds (FRET membrane potential, deltamethrin-opened channels)
Format: cell-based
Details: HEK293 cells expressing human Nav1.8; deltamethrin as opener; read-out: affinity for the NaV1.8 channel (binding affinity; IC50 from VIPR assay)
Source text: The ability of the pyridine derivatives of the formula (I) to inhibit the NaV1.8 channel may be measured using the assay described below.
VIPR Assay for Nav1.8 Compounds
This screen is used to determine the effects of compounds on tetrodotoxin-resistant (TTX-R) sodium channels in Human Nav1.8 (HEK293) expressing cell line, utilising the technology of Aurora's fluorescent Voltage/Ion Probe Reader (VIPR). This experiment is based on FRET (Fluorescence Resonance Energy Transfer) and uses two fluorescent molecules. The first molecule, Oxonol (DiSBAC2(3)), is a highly fluorescent, negatively charged, hydrophobic ion that “senses” the trans-membrane electrical potential. […] The voltage dependent redistribution is transduced into a ratiometric fluorescent readout via a second fluorescent molecule (Coumarin (CC2-DMPE)) that binds specifically to one face of the plasma membrane and functions as a FRET partner to the mobile voltage-sensing ion. […]
2. […] Once the incubation is complete, the cells are ready to be assayed using the VIPR for sodium addback membrane potential.
The data was analyzed and reported as normalised ratios of intensities measured in the 460 nm and 580 nm channels. […]
Rf/Ri ratio values are plotted using Excel Labstats (curve fit) or analysed via ECADA to determine an IC50 value for each compound.

T1 sequence (Q9Y5Y9 whole entry): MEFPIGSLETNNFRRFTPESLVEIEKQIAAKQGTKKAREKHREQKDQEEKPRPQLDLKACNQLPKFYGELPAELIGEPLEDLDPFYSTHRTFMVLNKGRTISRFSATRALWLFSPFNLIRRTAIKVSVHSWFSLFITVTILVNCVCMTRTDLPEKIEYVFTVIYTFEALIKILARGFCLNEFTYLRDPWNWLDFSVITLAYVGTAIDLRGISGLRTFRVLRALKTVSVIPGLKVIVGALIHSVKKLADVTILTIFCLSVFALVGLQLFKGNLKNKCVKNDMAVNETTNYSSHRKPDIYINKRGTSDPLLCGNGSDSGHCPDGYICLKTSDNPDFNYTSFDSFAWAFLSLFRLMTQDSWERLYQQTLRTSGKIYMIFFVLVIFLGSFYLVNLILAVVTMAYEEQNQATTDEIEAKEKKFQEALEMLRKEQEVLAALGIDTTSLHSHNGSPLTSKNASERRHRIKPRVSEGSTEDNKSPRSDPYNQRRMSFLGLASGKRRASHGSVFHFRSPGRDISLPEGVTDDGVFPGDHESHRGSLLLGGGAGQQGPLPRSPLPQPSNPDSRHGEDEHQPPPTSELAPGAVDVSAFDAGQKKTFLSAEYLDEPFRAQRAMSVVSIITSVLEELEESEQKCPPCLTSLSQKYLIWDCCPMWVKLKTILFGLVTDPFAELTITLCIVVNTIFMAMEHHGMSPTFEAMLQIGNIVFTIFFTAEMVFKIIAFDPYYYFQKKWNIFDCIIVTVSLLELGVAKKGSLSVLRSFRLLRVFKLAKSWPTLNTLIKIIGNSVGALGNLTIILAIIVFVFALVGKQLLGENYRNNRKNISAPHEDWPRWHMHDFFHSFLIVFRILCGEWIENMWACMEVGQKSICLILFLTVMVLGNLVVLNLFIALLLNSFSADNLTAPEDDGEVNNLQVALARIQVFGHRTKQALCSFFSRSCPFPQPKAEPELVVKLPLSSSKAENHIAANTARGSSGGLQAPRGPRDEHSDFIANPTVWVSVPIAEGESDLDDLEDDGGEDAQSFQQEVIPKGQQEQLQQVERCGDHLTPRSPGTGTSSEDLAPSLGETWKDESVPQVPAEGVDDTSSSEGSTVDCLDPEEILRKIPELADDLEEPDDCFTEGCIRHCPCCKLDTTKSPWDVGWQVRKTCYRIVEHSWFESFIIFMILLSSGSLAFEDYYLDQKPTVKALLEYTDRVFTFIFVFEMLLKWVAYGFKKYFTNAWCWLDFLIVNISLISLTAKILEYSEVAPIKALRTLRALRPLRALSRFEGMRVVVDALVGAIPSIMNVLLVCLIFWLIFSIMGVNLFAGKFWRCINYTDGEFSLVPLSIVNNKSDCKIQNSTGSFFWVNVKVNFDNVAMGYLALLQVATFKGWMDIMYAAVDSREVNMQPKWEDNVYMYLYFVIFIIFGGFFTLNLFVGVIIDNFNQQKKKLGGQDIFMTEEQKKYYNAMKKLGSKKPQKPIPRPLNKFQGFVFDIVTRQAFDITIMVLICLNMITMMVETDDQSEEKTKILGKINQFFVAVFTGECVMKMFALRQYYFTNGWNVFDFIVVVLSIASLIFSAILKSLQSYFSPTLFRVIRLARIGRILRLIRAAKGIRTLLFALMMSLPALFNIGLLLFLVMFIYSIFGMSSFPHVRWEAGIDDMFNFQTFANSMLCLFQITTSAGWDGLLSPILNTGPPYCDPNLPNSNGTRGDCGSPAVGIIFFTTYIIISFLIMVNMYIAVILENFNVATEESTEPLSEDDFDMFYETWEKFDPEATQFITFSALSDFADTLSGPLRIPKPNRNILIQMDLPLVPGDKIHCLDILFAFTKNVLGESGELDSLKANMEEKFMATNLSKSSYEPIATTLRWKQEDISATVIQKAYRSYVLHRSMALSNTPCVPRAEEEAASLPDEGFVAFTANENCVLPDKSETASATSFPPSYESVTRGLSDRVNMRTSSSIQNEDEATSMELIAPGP

Structure (SMILES): CNC(=O)c1ccc(-c2cc(Cl)cc(Cl)c2Cl)c(N)n1 [Example 1, 6-Amino-5-(2,3,5-trichloro-phenyl)-pyridine-2-carboxylic acid methylamide]
- IC50: 2.04 µM
